According to patent US11976083B2, “Inhibitors of peptidylarginine deiminases” (Gilead Sciences, Inc., priority 2020, dated 2024):

Each compound was assayed against T1, human PAD4 (Homo sapiens, UniProt Q9UM07) (assay: In vitro PAD4 BAEE biochemical assay). Conditions: BAEE substrate 3 mM, 5 nM PAD4, 2 mM calcium chloride; geometric mean of multiple experiments.
T1 construct: human PAD4 (NM_012387), A2-P663, was PCR amplified; His-SUMO (N, cleaved yes); made in house; host or cells: E. coli BL21(DE3)
T1 sequence (Q9UM07 2-663): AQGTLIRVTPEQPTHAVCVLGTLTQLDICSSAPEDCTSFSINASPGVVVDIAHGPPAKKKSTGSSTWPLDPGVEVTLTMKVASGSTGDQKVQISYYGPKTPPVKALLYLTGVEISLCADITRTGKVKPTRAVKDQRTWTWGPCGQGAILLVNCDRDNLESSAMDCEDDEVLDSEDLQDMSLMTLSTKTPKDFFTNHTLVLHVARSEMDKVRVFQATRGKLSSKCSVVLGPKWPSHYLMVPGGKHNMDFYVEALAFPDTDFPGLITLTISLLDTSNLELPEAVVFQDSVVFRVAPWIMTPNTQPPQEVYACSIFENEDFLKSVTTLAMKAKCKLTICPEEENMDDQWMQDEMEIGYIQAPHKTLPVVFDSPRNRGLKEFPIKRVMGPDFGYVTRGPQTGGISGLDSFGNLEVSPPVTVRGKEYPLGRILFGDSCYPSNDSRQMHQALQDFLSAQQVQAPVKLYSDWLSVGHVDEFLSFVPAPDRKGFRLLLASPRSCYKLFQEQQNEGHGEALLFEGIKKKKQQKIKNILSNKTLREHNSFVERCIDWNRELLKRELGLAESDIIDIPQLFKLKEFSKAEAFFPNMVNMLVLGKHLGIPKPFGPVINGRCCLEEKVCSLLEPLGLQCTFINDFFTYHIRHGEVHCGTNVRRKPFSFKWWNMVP
Method in brief: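 Fluorescence read-out (ex 405/em 535 nm) of isoindole formed from ammonia, o-phthalaldehyde and DTT after EDTA stop. Reaction: 5 nM PAD4, 2 mM CaCl2, 3 mM BAEE, 2 h, 25 °C, after 30 min enzyme–compound preincubation. Normalised to BB-Cl-Amidine (50 µM) and DMSO controls.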
An IC50 of 8110 nM was found for COc1cc(C(=O)N[C@H]2CNCC[C@H]2OC)cc2nc(-c3cc4ccc5nc4n3CCCCCCC(C)(C)C(=O)N[C@@H]5C)n(C)c12 [Example 82, 7-methoxy-~{N}-[(3~{S},4~{R})-4-methoxy-3-piperidyl]-1-methyl-2-[(11~{R})-8,8,11-trimethyl-9-oxo-1,10,19-triazatricyclo[10.5.2.0^{15,18}]nonadeca-12(19),13,15(18),16-tetraen-17-yl]benzimidazole-5-carboxamide] in this work. An IC50 of 204 nM was found for COc1cc(C(=O)N2[C@H]3CC[C@@H]2[C@H](N)C3)cc2nc(-c3cc4ccc5nc4n3CCCCCCOc3ncccc3-5)n(C)c12 [Example 83, [(1~{R},2~{R},4~{S})-2-amino-7-azabicyclo[2.2.1]heptan-7-yl]-[7-methoxy-1-methyl-2-(8-oxa-6,15,21-triazatetracyclo[13.5.2.0^{2,7}.0^{18,22}]docosa-1(21),2,4,6,16,18(22),19-heptaen-16-yl)benzimidazol-5-yl]methanone] in this work. An IC50 of 89 nM was found for COc1cc(C(=O)N2[C@H]3CC[C@@H]2[C@H](N)C3)cc2nc(-c3cc4ccc5nc4n3CCCCCCC(=O)Nc3ncccc3-5)n(C)c12 [Example 84, 17-[5-[(1~{R},2~{R},4~{S})-2-amino-7-azabicyclo[2.2.1]heptane-7-carbonyl]-7-methoxy-1-methyl-benzimidazol-2-yl]-6,8,16,22-tetrazatetracyclo[14.5.2.0^{2,7}.0^{19,23}] tricosa-1(22),2,4,6,17,19(23),20-heptaen-9-one] in this work. An IC50 of 406 nM was found for COc1cc(C(=O)N2[C@H]3CC[C@@H]2[C@H](N)C3)cc2nc(-c3cc4ccc5nc4n3CCCCCCCOc3ncccc3-5)n(C)c12 [Example 85, [(1˜{R},2˜{R},4˜{S})-2-amino-7-azabicyclo[2.2.1]heptan-7-yl]-[7-methoxy-1-methyl-2-(8-oxa-6,16,22-triazatetracyclo[14.5.2.0^{2,7}.0^{19,23}]tricosa-1(22),2,4,6,17,19(23),20-heptaen-17-yl)benzimidazol-5-yl]methanone] in this work. An IC50 of 643 nM was found for COc1cc(C(=O)N2[C@H]3CC[C@@H]2[C@H](N)C3)cc2nc(-c3cc4ccc5nc4n3CCCCCCCCOc3ncccc3-5)n(C)c12 [Example 86, [(1~{R},2~{R},4~{S})-2-amino-7-azabicyclo[2.2.1]heptan-7-yl]-[7-methoxy-1-methyl-2-(8-oxa-6,17,23-triazatetracyclo[15.5.2.0^{2,7}.0^{20,24}]tetracosa-1(23),2,4,6,18,20(24),21-heptaen-18-yl)benzimidazol-5-yl]methanone] in this work. An IC50 of 83 nM was found for COc1cc(C(=O)N2[C@H]3CC[C@@H]2[C@H](N)C3)cc2nc(-c3cc4ccc5nc4n3CCCCCCC(=O)Nc3ccccc3-5)n(C)c12 [Example 87, 17-[5-[(1~{R},2~{R},4~{S})-2-amino-7-azabicyclo[2.2.1]heptane-7-carbonyl]-7-methoxy-1-methyl-benzimidazol-2-yl]-8,16,22-triazatetracyclo[14.5.2.0^{2,7}.0^{19,23}] tricosa-1(22),2,4,6,17,19(23),20-heptaen-9-one] in this work. An IC50 of 97 nM was found for COc1cc(C(=O)N2[C@H]3CC[C@@H]2[C@H](N)C3)cc2nc(-c3cc4ccc5cc4n3CCCCCCC(=O)Nc3ncccc3-5)n(C)c12 [Example 88, 17-[5-[(1˜{R},2˜{R},4˜{S})-2-amino-7-azabicyclo[2.2.1]heptane-7-carbonyl]-7-methoxy-1-methyl-benzimidazol-2-yl]-6,8,16-triazatetracyclo[14.5.2.0^{2,7}.0^{19,23}]tricosa-1(22),2,4,6,17,19(23),20-heptaen-9-one] in this work. An IC50 of 113 nM was found for COc1cc(C(=O)N2[C@H]3CC[C@@H]2[C@H](N)C3)cc2nc(-c3cc4ccc5nc4n3CCCCCCCC(=O)Nc3ncccc3-5)n(C)c12 [Example 89, 18-[5-[(1~{R},2~{R},4~{S})-2-amino-7-azabicyclo[2.2.1]heptane-7-carbonyl]-7-methoxy-1-methyl-benzimidazol-2-yl]-6,8,17,23-tetrazatetracyclo[15.5.2.0^{2,7}.0^{20,24}] tetracosa-1(23),2,4,6,18,20(24),21-heptaen-9-one] in this work. An IC50 of 497 nM was found for COc1cc(C(=O)N2[C@H]3CC[C@@H]2[C@H](N)C3)cc2nc(-c3cc4ccc5nc4n3CCCCCCC(=O)Nc3ccncc3-5)n(C)c12 [Example 90, 17-[5-[(1~{R},2~{R},4~{S})-2-amino-7-azabicyclo[2.2.1]heptane-7-carbonyl]-7-methoxy-1-methyl-benzimidazol-2-yl]-4,8,16,22-tetrazatetracyclo[14.5.2.0^{2,7}.0^{19,23}] tricosa-1(22),2,4,6,17,19(23),20-heptaen-9-one] in this work. An IC50 of 82 nM was found for COc1cc(C(=O)N2[C@H]3CC[C@@H]2[C@H](N)C3)cc2nc(-c3cc4ccc5nc4n3CCCCCCNC(=O)c3ncccc3-5)n(C)c12 [Example 91, 17-[5-[(1˜{R},2˜{R},4˜{S})-2-amino-7-azabicyclo[2.2.1]heptane-7-carbonyl]-7-methoxy-1-methyl-benzimidazol-2-yl]-6,9,16,22-tetrazatetracyclo[14.5.2.0^{2,7}.0^{19,23}]tricosa-1(22),2,4,6,17,19(23),20-heptaen-8-one] in this work. An IC50 of 175 nM was found for COc1cc(C(=O)N2[C@H]3CC[C@@H]2[C@H](N)C3)cc2nc(-c3cc4ccc5nc4n3CCCCCC(=O)Nc3ncccc3-5)n(C)c12 [Example 92, 16-[5-[(1~{R},2~{R},4~{S})-2-amino-7-azabicyclo[2.2.1]heptane-7-carbonyl]-7-methoxy-1-methyl-benzimidazol-2-yl]-6,8,15,21-tetrazatetracyclo[13.5.2.0^{2,7}.0^{18,22}] docosa-1(21),2(7),3,5,16,18(22),19-heptaen-9-one] in this work. An IC50 of 161 nM was found for COc1cc(C(=O)N2[C@H]3CC[C@@H]2[C@H](N)C3)cc2nc(-c3cc4ccc5nc4n3CCCCCCCC(=O)Nc3ccccc3-5)n(C)c12 [Example 93, 18-[5-[(1~{R},2~{R},4~{S})-2-amino-7-azabicyclo[2.2.1]heptane-7-carbonyl]-7-methoxy-1-methyl-benzimidazol-2-yl]-8,17,23-triazatetracyclo[15.5.2.0^{2,7).0^{20,24}] tetracosa-1(23),2,4,6,18,20(24),21-heptaen-9-one] in this work. An IC50 of 165 nM was found for COc1cc(C(=O)N2[C@H]3CC[C@@H]2[C@H](N)C3)cc2nc(-c3cc4ccc5cc4n3CCCCCCC(=O)Nc3ccccc3-5)n(C)c12 [Example 94, 17-[5-[(1~{R},2~{R},4~{S})-2-amino-7-azabicyclo[2.2.1]heptane-7-carbonyl]-7-methoxy-1-methyl-benzimidazol-2-yl]-8,16-diazatetracyclo[14.5.2.0^{2,7}.0^{19,23}] tricosa-1(22),2,4,6,17,19(23),20-heptaen-9-one] in this work. An IC50 of 86 nM was found for COc1cc(C(=O)N2[C@H]3CC[C@@H]2[C@H](N)C3)cc2nc(-c3cc4ccc5nc4n3CCCCCCC(=O)Nc3cnccc3-5)n(C)c12 [Example 95, 17-[5-[(1~{R},2~{R},4~{S})-2-amino-7-azabicyclo[2.2.1]heptane-7-carbonyl]-7-methoxy-1-methyl-benzimidazol-2-yl]-5,8,16,22-tetrazatetracyclo[14.5.2.0^{2,7}.0^{19,23}] tricosa-1(22),2,4,6,17,19(23),20-heptaen-9-one] in this work. An IC50 of 3130 nM was found for COc1cc(C(=O)N2[C@H]3CC[C@@H]2[C@H](N)C3)cc2nc(-c3cc4ccc5nc4n3CCCCCCNc3ncccc3-5)n(C)c12 [Example 96, [(1˜{R},2˜{R},4˜{S})-2-amino-7-azabicyclo[2.2.1]heptan-7-yl]-[7-methoxy-1-methyl-2-(6,8,15,21-tetrazatetracyclo[13.5.2.0^{2,7}.0^{18,22}]docosa-1(21),2,4,6,16,18(22),19-heptaen-16-yl)benzimidazol-5-yl]methanone] in this work. An IC50 of 57 nM was found for COc1cc(C(=O)N2[C@H]3CC[C@@H]2[C@H](N)C3)cc2nc(-c3cc4ccc5cc4n3CCCCCCNC(=O)c3ccccc3-5)n(C)c12 [Example 97, 17-[5-[(1~{R},2~{R},4~{S})-2-amino-7-azabicyclo[2.2.1]heptane-7-carbonyl]-7-methoxy-1-methyl-benzimidazol-2-yl]-9,16-diazatetracyclo[14.5.2.0^{2,7}.0^{19,23}] tricosa-1(22),2,4,6,17,19(23),20-heptaen-8-one] in this work. An IC50 of 122 nM was found for COc1cc(C(=O)N2[C@H]3CC[C@@H]2[C@H](N)C3)cc2nc(-c3cc4ccc5cc4n3CCCCCCNC(=O)c3ncccc3-5)n(C)c12 [Example 98, 17-[5-[(1~{R},2~{R},4~{S})-2-amino-7-azabicyclo[2.2.1]heptane-7-carbonyl]-7-methoxy-1-methyl-benzimidazol-2-yl]-6,9,16-triazatetracyclo[14.5.2.0^{2,7}.0^{19,23}] tricosa-1(22),2,4,6,17,19(23),20-heptaen-8-one] in this work. An IC50 of 111 nM was found for COc1cc(C(=O)N2[C@H]3CC[C@@H]2[C@H](N)C3)cc2nc(-c3cc4ccc5cc4n3CCCCCCC(C)(C)C(=O)Nc3ncccc3-5)n(C)c12 [Example 99, 18-[5-[(1~{R},2~{R},4~{S})-2-amino-7-azabicyclo[2.2.1]heptane-7-carbonyl]-7-methoxy-1-methyl-benzimidazol-2-yl]-10,10-dimethyl-6,8,17-triazatetracyclo[15.5.2.0^{2,7}.0^{20,24}] tetracosa-1(23),2(7),3,5,18,20(24),21-heptaen-9-one] in this work. An IC50 of 833 nM was found for COc1cc(C(=O)N2[C@H]3CC[C@@H]2[C@H](N)C3)cc2nc(-c3cc4ccc5cc4n3CCCCCCC(C)(C)C(=O)Nc3ccccc3-5)n(C)c12 [Example 100, 18-[5-[(1~{R},2~{R},4~{S})-2-amino-7-azabicyclo[2.2.1]heptane-7-carbonyl]-7-methoxy-1-methyl-benzimidazol-2-yl]-10,10-dimethyl-8,17-diazatetracyclo[15.5.2.0^{2,7}.0^{20,24}] tetracosa-1(23),2(7),3,5,18,20(24),21-heptaen-9-one] in this work.
